Measurements: patent publication US6169104A, “Di-aryl ethers and their derivatives as anti-cancer agents” (Large Scale Biology Corporation, priority 1998, dated 2001)

Legend:
[1] = system: met-1 mouse mammary tumors; assay: In vivo efficacy against met-1 mouse mammary tumors
Description: Mammary fat pads of Balb/c immunodeficient (nude) mice were implanted with 1 mm^3 of mammary tumor tissue. These mammary tumors originated from the met-1 mouse mammary tumor cell line and have been propagated by passaging in vivo. When palpable tumors appeared, animals were subdivided into various treatment groups and treated daily with intraperitoneal injections of control vehicle, BTO-967 (50 mg/kg), or BTO-964 (50 mg/kg). A group of untreated control animals was included in the study, because agents used in the vehicle for these test articles (DMSO/ethanol/CremophorEL/PEG 400, 1: 0.5 : 0.5: 6) were themselves found to have cytotoxic activity. Twice weekly, the volumes of the tumors in each animal in each group were measured to gather information on tumor growth (volume) as a function of type of treatment, dose, and time.

MDA MB 231 (breast) = assay: In vitro cytotoxicity screen, alamar Blue assay; assay type: cell-based; conditions: Homo sapiens, 168 h; MDA MB 231; 7 days post exposure; read-out: IC50
Description: (§1) Human tumor cell lines were exposed continuously to varying concentrations of test agents, i.e., BTO-956, BTO-964, BTO966 and BTO-967) and the viability of the cells was measured at set time points (1, 3, and 7 days) using the alamar Blue™ assay. […] This fluorescence can be measured with a fluorimeter, whereby the signal is directly proportional to cell number.
(§2) Various tumor cell lines of human origin representing a wide diversity of cancer pheno- and genotypes were exposed in vitro to the agents to evaluate the drug's effective range. Tumor lines screened included MDA MB 231 (breast), MCF-7 (breast), MDA MB 468 (breast), Siha (squamous cell carcinoma), A549 (non-small cell lung), HL-60 (leukemia), Ovcar-3 (ovarian). The test agents were prepared in serial dilutions from 10 mM stock solutions in DMSO yielding a 66-fold dose range of 20 μM, 10 μM, 3 μM, 1 μM and 0.3 μM concentrations. In each case, cells were maintained at 37° C. under 5 percent CO2 in air. All cell lines were incubated in Dulbecco's modified Eagle medium (DMEM) supplemented with 10% heat-inactivated fetal bovine serum and graded doses of BTO-956, 964, 966, or 967. 5-Fluorouracil (5-FU) was included as a positive control in experiments with two of the cell lines. The experiments were conducted in 96-well tissue culture plates (Falcon) with an initial seeding density of 1000 cells per well in 250 μl aliquots. The next day, medium was replaced with 100 μl of drug dilutions in triplicate.
(§3) After a 7 day exposure to the various agents, the alamarBlue dye was diluted to 20% in DMEM, and 100 μl was added to each well. The cells were incubated for 8 hours until obvious color changes indicated sufficient amounts of reduced dye for quantitation. Relative cell number was evaluated by florimetry on a Millipore 2300 CytoFluor fluorescence measurement system. Measurements were taken directly from 96-well plates after excitation at 560 nm with concomitant emission at 590 nm.

Ovcar-3 (ovarian) = assay: In vitro cytotoxicity screen, alamar Blue assay; assay type: cell-based; conditions: Homo sapiens, 168 h, 7 days post exposure
Description: as §1, §2, §3

MCF-7 (breast) = assay: In vitro cytotoxicity screen, alamar Blue assay; assay type: cell-based; conditions: Homo sapiens, MCF7, 168 h, 7 days post exposure
Description: as §1, §2, §3

MDA MB 468 (breast) = assay: In vitro cytotoxicity screen, alamar Blue assay; assay type: cell-based; conditions: Homo sapiens, 168 h, 7 days post exposure
Description: as §1, §2, §3

[2] = system: A549 (non-small cell lung); assay: In vitro cytotoxicity screen, alamar Blue assay; assay type: cell-based; conditions: Homo sapiens, 168 h; A549; 7 days post exposure; read-out: IC50
Description: as §1, §2, §3

[3] = system: Siha (squamous cell carcinoma); assay: In vitro cytotoxicity screen, alamar Blue assay; assay type: cell-based; conditions: Homo sapiens, 168 h, 7 days post exposure
Description: as §1, §2, §3

For `COc1ccc(Oc2c(I)cc(C=O)cc2I)cc1` [BTO-964, 3,5-Diiodo-4-(4'-methoxyphenoxy)benzadehyde], which “response of Met-1 tumors to treatment” value ([1]; 50 mg/kg daily i.p.) is on record?
Its value is “positive response”.

And the “Tumor Volume (mm^3)” value ([1]; 50 mg/kg daily intraperitoneal, 4 weeks post initiation of treatment, mean ± SEM, vehicle 1238 ± 170, none 1570 ± 219)?
The value was 876±126 mm^3.

And the IC50 (MDA MB 231 (breast))?
Its IC50 is 2000 nM.

And the IC50 (Ovcar-3 (ovarian))?
The IC50 was 1800 nM.

What about the IC50 (MCF-7 (breast)) of the same compound?
Its IC50 is 2400 nM.

And the IC50 (MDA MB 468 (breast))?
Its IC50 is 4000 nM.

And the IC50 [2]?
The IC50 was over 20000 nM.

And the IC50 [3]?
Its IC50 is 17000 nM.

With `COC(=S)c1cc(I)c(Oc2ccc(OC)cc2)c(I)c1` [BTO-967, methyl 3,5-diiodo-4-(4'-methoxyphenoxy)thiobenzoate] as the compound, how does the IC50 (MDA MB 231 (breast)) read?
The IC50 was 2000 nM.

What about the IC50 (Ovcar-3 (ovarian)) of the same compound?
Its IC50 is 800 nM.

And the IC50 (MCF-7 (breast))?
The IC50 was 1000 nM.

And the IC50 (MDA MB 468 (breast))?
Its IC50 is 1500 nM.

And the IC50 [2]?
The IC50 was 5500 nM.

What about the IC50 [3] of the same compound?
The IC50 was 20000 nM.
